Test results: patent publication US6403831B1, “Substituted benzylidene indenyl formamides, acetamides and propionamides” (Cell Pathways, Inc., priority 1996, dated 2002)
pEC50, pIC50: −log10 of the molar value. Marks after values point to notes of the source that are not given here.

Tests used:
[1] = system: human colon carcinoma cell line, SW-480; experiment: Growth inhibition, Sulforhodamine B (SRB) protein binding assay; assay type: cell-based; details: SW-480 cell line, six days continuous exposure
Description: These compounds were assayed for their growth inhibitory activity on the human colon carcinoma cell line, SW-480 obtained from ATCC (Rockville, Md.), to ascertain the degree of growth inhibition. Growth inhibition of this cell line is indicative of a benefit on precancerous lesions and neoplasms. The cell line and growth assay employed for these experiments are well characterized, and are used to evaluate the anti-neoplastic properties of NSAIDs. The assay is used by the United States National Cancer Institute in its screening program for new anti-cancer drugs.
Drug stock solutions were made in 100% DMSO then diluted with RPMI media for cell culture testing. All drug solutions were prepared fresh on the day of testing. The cultured cells were obtained at passage #99 and grown in RPMI media supplemented with 5% fetal calf serum, and 2 mM glutamine, 100 U/ml penicillin, 100 U/ml streptomycin, and 0.25 μg/ml amphotericin. The cultures were maintained in a humidified atmosphere of 95% air and 5% CO2 at 37° C. The cultures were passaged at preconfluent densities using a solution of 0.05% trypsin and 0.53 mM EDTA. Cells were plated at 1000 cells/well for 96 well flat-bottom microtiter plates.
Tumor cell growth inhibition was assessed using the Sulforhodamine B (SRB) protein binding assay. In this assay, tumor cells were plated in 96-well plates and treated with drug-containing media for six days (continuous exposure). For each plate, 6 wells were designated as no treatment controls, six wells as vehicle (0.1% DMSO) controls, and the remaining wells for drug dilutions with three wells per drug concentration. At the end of the exposure period, the cells were fixed and stained with sulforhodamine B, a protein binding dye. The dye was then solubilized, and the optical density of the resulting solution was determined on a 96-well plate reader. The mean dye intensity of the treated wells was then divided by the mean dye intensity in the control wells (6 wells of each) to determine the effect of the drug on the cells. Dye intensity is proportional to the number of cells or amount of protein per well. The resultant “percent inhibition” value then represents the degree of growth inhibition caused by the drug.
For each experiment, an IC50 value was determined and used for comparative purposes. This value is equivalent to the concentration of drug needed to inhibit tumor cell growth by 50%. IC50 values were obtained graphically by connecting the mean values for each drug concentration tested. Each experiment included at least three wells per drug concentration. Concentration was plotted on a log scale on the X-axis.

[2] = target: T1, COX I (Ovis aries, UniProt P05979); experiment: Cyclooxygenase (COX) inhibition, purified COX; assay type: biochemical; details: values marked *: 1000 μM test compound; purified COX from ram seminal vesicles
T1 construct: The COX was purified form ram seminal vesicles; from tissue; host or cells: ram seminal vesicles
T1 sequence (P05979 25-600): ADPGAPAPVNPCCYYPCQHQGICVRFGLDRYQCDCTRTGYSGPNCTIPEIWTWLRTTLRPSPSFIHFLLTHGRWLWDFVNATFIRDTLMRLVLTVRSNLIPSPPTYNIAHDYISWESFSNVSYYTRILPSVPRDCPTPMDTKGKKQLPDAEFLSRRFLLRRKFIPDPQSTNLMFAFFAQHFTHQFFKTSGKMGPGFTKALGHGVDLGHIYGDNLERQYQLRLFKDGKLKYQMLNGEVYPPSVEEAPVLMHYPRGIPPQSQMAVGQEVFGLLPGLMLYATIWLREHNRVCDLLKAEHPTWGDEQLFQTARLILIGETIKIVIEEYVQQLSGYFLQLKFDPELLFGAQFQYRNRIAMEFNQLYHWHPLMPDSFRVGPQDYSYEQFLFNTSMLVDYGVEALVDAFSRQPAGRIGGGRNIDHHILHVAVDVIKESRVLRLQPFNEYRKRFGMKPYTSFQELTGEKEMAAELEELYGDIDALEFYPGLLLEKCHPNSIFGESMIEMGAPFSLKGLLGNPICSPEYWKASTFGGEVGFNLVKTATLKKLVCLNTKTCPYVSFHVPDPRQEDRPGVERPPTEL
Description: Compounds of this invention, as well as a positive control, sulindac sulfide were to determine whether they inhibited the production of cyclooxygenase (see Table 5 below).
COX catalyzes the formation of prostaglandins and thromboxane by the oxidative metabolism of arachidonic acid. The compounds of this invention were evaluated for inhibitory effects on purified COX. The COX was purified form ram seminal vesicles, as described by Boopathy, R. and Balasubramanian, J. 239:371-377, 1988. COX activity was assayed as described by Evans, A. T., et al., “Actions of cannabis constituents on enzymes of arachidonate metabolism anti-flammatory potential,” Biochem. Pharmacol., 36:2035-2037, 1987. Briefly, purified COX was incubated with arachidonic acid (100 μM) for 2.0 min at 37° C. in the presence or absence of test compounds. The assay was terminated buy the addition of TCA, and COX activity was determined by absorbance at 530 nm.

[3] = system: HT-29 human colon carcinoma cells; experiment: Apoptosis by morphology (acridine orange/ethidium bromide, condensed chromatin); assay type: cell-based; details: HT-29 cells
Description: Apoptosis was measured using an assay of cell death based on morphological characteristics of apoptotic cells (i.e., condensed chromatin). Drug preparation and cell culture conditions were the same as for the SRB assay described above, except that HT-29 human colon carcinoma cells were employed/Confluent cultures were established in 12.5 cm^2 flasks by plating 0.5×10^6 cells/flask. The cultures were assayed for apoptosis by fluorescent microscopy following labeling with acridine orange and ethidium bromide. Floating and attached cells were collected by trypsinization and washed three times in PBS. One ml aliquots were centrifuged (3 g). The pellet was resuspended in 25 μl media and 1 μl of a dye mixture containing 100 μg/ml acridine orange and 100 μg/ml ethidium bromide prepared in PBS and mixed gently. Ten μl of mixture was placed on a microscope slide and covered with a 22 mm^2 coverslip and examined under 40×dry objectives using epillumination and filter combination.
An observer blinded to the identity of the treatments scored at least 100 cells per sample. Apoptotic cells were identified by nuclear condensation of chromatin stained by the acridine orange or ethidium bromide.

[4] = system: SW-480 colon adenocarcinoma cells; experiment: Apoptosis by DNA fragmentation (Cell Death Detection ELISA plus); assay type: cell-based, human; details: SW-480 cells, 48 hrs; for pEC50: by software or estimated from effective concentration range; for DNA Fragmentation FS (100 μM): fold stimulation FS=ODmax/ODveh
Description: Apoptosis was also measured based on the amount of fragmented DNA contained in cell lysates. Briefly, SW-480 colon adenocarcinoma cells were plated in 96-well microtitre plates (“MTP”) at a density of 10K cells/well in 180 μl and incubated for 24 hrs. Cells were then treated with 20 μl aliquots of appropriately diluted compound, and allowed to incubate for an additional 48 hrs.
After the incubation, samples were prepared according to the following steps. The MTP was centrifuged (15 min., 1000 rpm) and the supernatant was carefully removed by fast inversion of the MTP. The cell pellents in each well were then resuspended in ^200 μl lysis buffer and incubated for 45 min. at room temperature to lyse the cells. The lysates were then centrifuged (15 min., 1000 rpm) and 20 μl aliquots of the supernatant (=cytoplasmic fraction) were transferred into the streptavidin coated MTP for analysis. Care was taken not to shake the lysed pellets in the MTP (=cell nucleii containing high molecular weight, unfragmented DNA). Samples were analyzed immediately, because storage at 4 C or −20 C reduces the ELISA-signals.
Samples were then processed according to a DNA fragmentation assay protocol, and dose-response curves were generated based on optical density readings. Quantification of DNA was done by a commercially available photometric enzyme-immunoassay manufactured by Mannheim-Boehringer under the name “Cell Death Detection ELISA^plus”. The assay is based on a quantitative sandwich-enzyme-immunoassay-principle using mouse monoclonal antibodies directed against DNA and histones, respectively. This allows the specific determination of mono and oligonucleosomes in the cytoplasmatic fraction of cell lysates. In brief, the assay procedure is as follows. The sample (cell-lysate, serum, culture-supernatant etc.) is placed into a streptavidin-coated MTP. Subsequently, a mixture of anti-histone-biotin and anti-DNA-POD are added and incubated for 2 hours. During the incubation period, the anti-histone antibody binds to the histone-component of the nucleosomes and simultaneously fixes the immunocomplex to the streptavidin-coated MTP via its biotinylation. Additionally, the anti-DNA-POD antibody reacts with the DNA component of the nucleosomes. After removal of unbound antibodies by a washing step, the amount of nucleosomes is quantified by the POD retained in the immunocomplex. POD is determined photometrically with ABTS® (2,2′-Azino-di[3-ethylbenzthiazolin-sulfonat])* as substrate.
Fold stimulation (FS=ODmax/ODveh), an indicator of apoptotic response, was determined for each compound tested. EC50 values were determined either specifically by data analysis software, or by estimates based on the effective concentration range of each compound (ECR=min. effective dose-min. dose to peak effect). These FS and EC50 values for the tested compounds are listed above in Table 6.

Row | Structure (SMILES) | pIC50 [1] | COX I % Inhibition (values marked *) [2] | Morphology % Apoptotic Cells (1 μM) [3] | pEC50 [4] | DNA Fragmentation FS (100 μM) [4]
1 | CCOC(=O)CN(Cc1ccccc1)C(=O)CC1=C(C)/C(=C/c2cc(OC)c(OC)c(OC)c2)c2ccc(F)cc21 [Example 31, (Z)-5-fluoro-2-methyl-1-(3,4,5 trimethoxybenzylidene)-3-(N-benzyl-N-glycinylethyl ester)-indenylacetamide] | 5.28 | 30* % | 30% | < 5.00 | <2
2 | COc1cc(/C=C2/C(C)=C(CC(=O)NCc3ccccc3F)c3cc(F)ccc32)cc(OC)c1OC [Example 32, (Z)-5-fluoro-2-methyl-1-(3,4,5-trimethoxybenzylidene)-3-(N-2-fluorobenzyl)-indenylacetamide] | 5.66 | 58* % | 55% | 6.49 | 2.5
3 | COc1cc(/C=C2/C(C)=C(CC(=O)NCc3ccccc3Br)c3cc(F)ccc32)cc(OC)c1OC [Example 33, (Z)-5-fluoro-2-methyl-1-(3,4,5-trimethoxybenzylidene)-3-(N-2-bromobenzyl)-indenylacetamide] | 5.74 | 49* % | 28% | 5.40 | 3.7
4 | COc1cc(/C=C2/C(C)=C(CC(=O)NCc3ccccc3N)c3cc(F)ccc32)cc(OC)c1OC [Example 34, (Z)-5-fluoro-2-methyl-1-(3,4,5-trimethoxybenzylidene)-3-(N-2-aminobenzyl)-indenylacetamide] | 5.21 | 31* % | 45% | < 5.00 | 2.1
5 | COc1ccc(CN(C(=O)CC2=C(C)/C(=C/c3cc(OC)c(OC)c(OC)c3)c3ccc(F)cc32)c2ccccn2)cc1 [Example 35, (Z)-5-fluoro-2-methyl-1-(3,4,5-trimethoxybenzylidene)-3-(N-4-methoxybenzyl-N-(2-pyridinyl))-indenylacetamide] | < 5.00 | 37* % | 40% | < 5.00 | <2
6 | COc1cc(/C=C2/C(C)=C(CC(=O)N(CCN(C)C)Cc3ccccc3)c3cc(F)ccc32)cc(OC)c1OC [Example 36, (Z)-5-fluoro-2-methyl-1-(3,4,5-trimethoxybenzylidene)-3-(N-benzyl-N-2-dimethylaminoethyl)-indenylacetamide] | 5.52 | 72* % | 22% | 8.00 | 5.3
7 | COc1cc(/C=C2/C(C)=C(CC(=O)N(CCC#N)Cc3ccccc3)c3cc(F)ccc32)cc(OC)c1OC [Example 37, (Z)-5-fluoro-2-methyl-1-(3,4,5-trimethoxybenzylidene)-3-(N-benzyl-N-(2-cyanoethyl))-indenylacetamide] | < 5.00 | 38* % | <20% | < 5.00 | 2.5
8 | COc1cc(/C=C2/C(C)=C(CC(=O)N(Cc3ccccc3)c3ccccn3)c3cc(F)ccc32)cc(OC)c1OC [Example 38, (Z)-5-fluoro-2-methyl-1-(3,4,5-trimethoxybenzylidene)-3-(N-benzyl-N-(2-pyridinyl))-indenylacetamide] | < 5.00 | 35* % | 20% | < 5.00 | <2
